Where a SMILES comes first, the peptide text is derived from it. Bridges are numbered along the chain shown (N, C = ends). [ ]: non-standard residue; d: D form. NMeF = CN[C@@H](Cc1ccccc1)C(=O)O; dHyp = O=C(O)[C@H]1C[C@H](O)CN1; NMeNle = CCCC[C@H](NC)C(=O)O; dPip = O=C(O)[C@H]1CCCCN1; dThz = O=C(O)[C@H]1CSCN1; Dap = NC[C@H](N)C(=O)O; Sar = CNCC(=O)O
The compounds below were run against T1, Human PD-L1/PD-1 (Homo sapiens, UniProt Q9NZQ7) (assay: HTRF Human PD-L1/PD-1 binding assay (PD-1-Ig/PD-L1-His)). Settings: PD-L1-His 10 nM, PD-1-Ig 20 nM; class symbol; read-out: HTRF Human PD-L1/PD-1 Binding Assay IC50 Range.
T1 construct: TVMV protease cleavage site (C); made in house; host or cells: HEK293T cells
T1 sequence (Q9NZQ7 with tags, fused parts or gaps): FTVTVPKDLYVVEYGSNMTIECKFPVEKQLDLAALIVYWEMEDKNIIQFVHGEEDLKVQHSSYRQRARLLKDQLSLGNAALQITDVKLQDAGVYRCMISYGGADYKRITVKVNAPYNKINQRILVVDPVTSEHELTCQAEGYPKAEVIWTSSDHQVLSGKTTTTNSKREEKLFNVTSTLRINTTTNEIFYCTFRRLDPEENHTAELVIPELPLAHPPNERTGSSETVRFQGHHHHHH
Outline: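 Inhibitors were preincubated 15 min with human PD-L1(18-239)-His (10 nM final), then PD-1(25-167)-Ig (20 nM final) was added for 15 min in dPBS/0.1% BSA/0.05% Tween-20. Eu-cryptate anti-Ig (1 nM) and APC anti-His (20 nM) were added; 665/620 nm ratio read after 30 min.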
In the case of `CCCC[C@H]1C(=O)N2CCC[C@@H]2C(=O)N[C@@H](CO)C(=O)N[C@@H](C(C)C)C(=O)N(C)[C@@H](Cc2ccccc2)C(=O)N[C@@H](Cc2ccc(O)cc2)C(=O)N2CSC[C@@H]2C(=O)N[C@@H](Cc2c[nH]c3ccccc23)C(=O)N[C@@H](Cc2ccc(O)cc2)C(=O)N[C@@H](CC(C)C)C(=O)N[C@H](C(=O)NCC(N)=O)CSCC(=O)N[C@@H](Cc2ccccc2)C(=O)N(C)[C@@H](Cc2ccccc2)C(=O)N1C` [Example 10070] ({CH2CO}-F[NMeF][NMeNle][dP]SV[NMeF]Y[dThz]WYLCG-NH2; thioether N-13), the IC50 is reported as 0.01 to 0.0999 µM. `CCCC[C@H]1C(=O)N2CCC[C@@H]2C(=O)N[C@@H](CN)C(=O)N[C@@H](C(C)C)C(=O)N(C)[C@@H](Cc2ccccc2)C(=O)N[C@@H](Cc2ccc(O)cc2)C(=O)N2CSC[C@@H]2C(=O)N[C@@H](Cc2c[nH]c3ccccc23)C(=O)N[C@@H](Cc2ccc(O)cc2)C(=O)N[C@@H](CC(C)C)C(=O)N[C@H](C(=O)NCC(N)=O)CSCC(=O)N[C@@H](Cc2ccccc2)C(=O)N(C)[C@@H](Cc2ccccc2)C(=O)N1C` [Example 10071] ({CH2CO}-F[NMeF][NMeNle][dP][Dap]V[NMeF]Y[dThz]WYLCG-NH2; thioether N-13) gave an IC50 of 0.01 to 0.0999 µM. `CCCC[C@H]1C(=O)N2CSC[C@@H]2C(=O)N[C@@H](CC(=O)O)C(=O)N[C@@H](C(C)C)C(=O)N(C)[C@@H](Cc2ccccc2)C(=O)N[C@@H](Cc2ccc(O)cc2)C(=O)N2CCC[C@@H]2C(=O)N[C@@H](Cc2c[nH]c3ccccc23)C(=O)N[C@@H](Cc2ccc(O)cc2)C(=O)N[C@@H](CC(C)C)C(=O)N[C@H](C(=O)NCC(N)=O)CSCC(=O)N[C@@H](Cc2ccccc2)C(=O)N(C)[C@@H](Cc2ccccc2)C(=O)N1C` [Example 10072] ({CH2CO}-F[NMeF][NMeNle][dThz]DV[NMeF]Y[dP]WYLCG-NH2; thioether N-13) gave an IC50 of 0.001 to 0.0099 µM. In the case of `CCCC[C@H]1C(=O)N2CSC[C@@H]2C(=O)N[C@@H](CC(N)=O)C(=O)N[C@@H](C(C)C)C(=O)N(C)[C@@H](Cc2ccccc2)C(=O)N[C@@H](Cc2ccc(O)cc2)C(=O)N2CCC[C@@H]2C(=O)N[C@@H](Cc2c[nH]c3ccccc23)C(=O)N[C@@H](Cc2ccc(O)cc2)C(=O)N[C@@H](CC(C)C)C(=O)N[C@H](C(=O)NCC(N)=O)CSCC(=O)N[C@@H](Cc2ccccc2)C(=O)N(C)[C@@H](Cc2ccccc2)C(=O)N1C` [Example 10073] ({CH2CO}-F[NMeF][NMeNle][dThz]NV[NMeF]Y[dP]WYLCG-NH2; thioether N-13), the IC50 is reported as 0.01 to 0.0999 µM. `CCCC[C@H]1C(=O)N2CSC[C@@H]2C(=O)N[C@@H](CO)C(=O)N[C@@H](C(C)C)C(=O)N(C)[C@@H](Cc2ccccc2)C(=O)N[C@@H](Cc2ccc(O)cc2)C(=O)N2CCC[C@@H]2C(=O)N[C@@H](Cc2c[nH]c3ccccc23)C(=O)N[C@@H](Cc2ccc(O)cc2)C(=O)N[C@@H](CC(C)C)C(=O)N[C@H](C(=O)NCC(N)=O)CSCC(=O)N[C@@H](Cc2ccccc2)C(=O)N(C)[C@@H](Cc2ccccc2)C(=O)N1C` [Example 10074] ({CH2CO}-F[NMeF][NMeNle][dThz]SV[NMeF]Y[dP]WYLCG-NH2; thioether N-13) showed an IC50 of 0.01 to 0.0999 µM. `CCCC[C@H]1C(=O)N2CSC[C@@H]2C(=O)N[C@@H](CN)C(=O)N[C@@H](C(C)C)C(=O)N(C)[C@@H](Cc2ccccc2)C(=O)N[C@@H](Cc2ccc(O)cc2)C(=O)N2CCC[C@@H]2C(=O)N[C@@H](Cc2c[nH]c3ccccc23)C(=O)N[C@@H](Cc2ccc(O)cc2)C(=O)N[C@@H](CC(C)C)C(=O)N[C@H](C(=O)NCC(N)=O)CSCC(=O)N[C@@H](Cc2ccccc2)C(=O)N(C)[C@@H](Cc2ccccc2)C(=O)N1C` [Example 10075] ({CH2CO}-F[NMeF][NMeNle][dThz][Dap]V[NMeF]Y[dP]WYLCG-NH2; thioether N-13) showed an IC50 of 0.01 to 0.0999 µM. `CCCC[C@H]1C(=O)N2CCC[C@@H]2C(=O)N[C@@H](CC(=O)O)C(=O)N[C@@H](C)C(=O)N(C)[C@@H](Cc2ccccc2)C(=O)N[C@@H](Cc2ccc(O)cc2)C(=O)N2CCC[C@@H]2C(=O)N[C@@H](Cc2c[nH]c3ccccc23)C(=O)N[C@@H](Cc2ccc(O)cc2)C(=O)N[C@@H](CC(C)C)C(=O)N[C@H](C(=O)NCC(N)=O)CSCC(=O)N[C@@H](Cc2ccccc2)C(=O)N(C)[C@@H](Cc2ccccc2)C(=O)N1C` [Example 10076] ({CH2CO}-F[NMeF][NMeNle][dP]DA[NMeF]Y[dP]WYLCG-NH2; thioether N-13) was tested, and the IC50 was 0.01 to 0.0999 µM. For `CCCC[C@H]1C(=O)N2CSC[C@@H]2C(=O)N[C@@H](CC(=O)O)C(=O)N[C@@H](C)C(=O)N(C)[C@@H](Cc2ccccc2)C(=O)N[C@@H](Cc2ccc(O)cc2)C(=O)N2CSC[C@@H]2C(=O)N[C@@H](Cc2c[nH]c3ccccc23)C(=O)N[C@@H](Cc2ccc(O)cc2)C(=O)N[C@@H](CC(C)C)C(=O)N[C@H](C(=O)NCC(N)=O)CSCC(=O)N[C@@H](Cc2ccccc2)C(=O)N(C)[C@@H](Cc2ccccc2)C(=O)N1C` [Example 10078] ({CH2CO}-F[NMeF][NMeNle][dThz]DA[NMeF]Y[dThz]WYLCG-NH2; thioether N-13), the IC50 was 0.01 to 0.0999 µM. `CCCC[C@H]1C(=O)N2C[C@@H](O)C[C@@H]2C(=O)N[C@@H](CC(=O)O)C(=O)N[C@@H](C)C(=O)N(C)[C@@H](Cc2ccccc2)C(=O)N[C@@H](Cc2ccc(O)cc2)C(=O)N2C[C@@H](O)C[C@@H]2C(=O)N[C@@H](Cc2c[nH]c3ccccc23)C(=O)N[C@@H](Cc2ccc(O)cc2)C(=O)N[C@@H](CC(C)C)C(=O)N[C@H](C(=O)NCC(N)=O)CSCC(=O)N[C@@H](Cc2ccccc2)C(=O)N(C)[C@@H](Cc2ccccc2)C(=O)N1C` [Example 10079] ({CH2CO}-F[NMeF][NMeNle][dHyp]DA[NMeF]Y[dHyp]WYLCG-NH2; thioether N-13) gave an IC50 of 0.01 to 0.0999 µM. In the case of `CCCC[C@H]1C(=O)N(C)CC(=O)N[C@@H](CC(=O)O)C(=O)N[C@@H](C)C(=O)N(C)[C@@H](Cc2ccccc2)C(=O)N[C@@H](Cc2ccc(O)cc2)C(=O)N2CCC[C@@H]2C(=O)N[C@@H](Cc2c[nH]c3ccccc23)C(=O)N[C@@H](Cc2ccc(O)cc2)C(=O)N[C@@H](CC(C)C)C(=O)N[C@H](C(=O)NCC(N)=O)CSCC(=O)N[C@@H](Cc2ccccc2)C(=O)N(C)[C@@H](Cc2ccccc2)C(=O)N1C` [Example 10080] ({CH2CO}-F[NMeF][NMeNle][Sar]DA[NMeF]Y[dP]WYLCG-NH2; thioether N-13), the IC50 is reported as 0.01 to 0.0999 µM. For `CCCC[C@H]1C(=O)N(C)CC(=O)N[C@@H](CC(=O)O)C(=O)N[C@@H](C)C(=O)N(C)[C@@H](Cc2ccccc2)C(=O)N[C@@H](Cc2ccc(O)cc2)C(=O)N2CCCC[C@@H]2C(=O)N[C@@H](Cc2c[nH]c3ccccc23)C(=O)N[C@@H](Cc2ccc(O)cc2)C(=O)N[C@@H](CC(C)C)C(=O)N[C@H](C(=O)NCC(N)=O)CSCC(=O)N[C@@H](Cc2ccccc2)C(=O)N(C)[C@@H](Cc2ccccc2)C(=O)N1C` [Example 10081] ({CH2CO}-F[NMeF][NMeNle][Sar]DA[NMeF]Y[dPip]WYLCG-NH2; thioether N-13), the IC50 was 0.01 to 0.0999 µM. `CCCC[C@H]1C(=O)N(C)CC(=O)N[C@@H](CC(=O)O)C(=O)N[C@@H](C)C(=O)N(C)[C@@H](Cc2ccccc2)C(=O)N[C@@H](Cc2ccc(O)cc2)C(=O)N2CSC[C@@H]2C(=O)N[C@@H](Cc2c[nH]c3ccccc23)C(=O)N[C@@H](Cc2ccc(O)cc2)C(=O)N[C@@H](CC(C)C)C(=O)N[C@H](C(=O)NCC(N)=O)CSCC(=O)N[C@@H](Cc2ccccc2)C(=O)N(C)[C@@H](Cc2ccccc2)C(=O)N1C` [Example 10082] ({CH2CO}-F[NMeF][NMeNle][Sar]DA[NMeF]Y[dThz]WYLCG-NH2; thioether N-13) was tested, and the IC50 was 0.1 to 0.99 µM. `CCCC[C@H]1C(=O)N2CCCC[C@@H]2C(=O)N[C@@H](CC(=O)O)C(=O)N[C@@H](C)C(=O)N(C)[C@@H](Cc2ccccc2)C(=O)N[C@@H](Cc2ccc(O)cc2)C(=O)N(C)CC(=O)N[C@@H](Cc2c[nH]c3ccccc23)C(=O)N[C@@H](Cc2ccc(O)cc2)C(=O)N[C@@H](CC(C)C)C(=O)N[C@H](C(=O)NCC(N)=O)CSCC(=O)N[C@@H](Cc2ccccc2)C(=O)N(C)[C@@H](Cc2ccccc2)C(=O)N1C` [Example 10084] ({CH2CO}-F[NMeF][NMeNle][dPip]DA[NMeF]Y[Sar]WYLCG-NH2; thioether N-13) showed an IC50 of 0.1 to 0.99 µM. With `CCCC[C@H]1C(=O)N2CSC[C@@H]2C(=O)N[C@@H](CC(=O)O)C(=O)N[C@@H](C)C(=O)N(C)[C@@H](Cc2ccccc2)C(=O)N[C@@H](Cc2ccc(O)cc2)C(=O)N(C)CC(=O)N[C@@H](Cc2c[nH]c3ccccc23)C(=O)N[C@@H](Cc2ccc(O)cc2)C(=O)N[C@@H](CC(C)C)C(=O)N[C@H](C(=O)NCC(N)=O)CSCC(=O)N[C@@H](Cc2ccccc2)C(=O)N(C)[C@@H](Cc2ccccc2)C(=O)N1C` [Example 10085] ({CH2CO}-F[NMeF][NMeNle][dThz]DA[NMeF]Y[Sar]WYLCG-NH2; thioether N-13) the IC50 was 0.1 to 0.99 µM.

Same assay, conditions: PD-L1-His 10 nM, PD-1-Ig 20 nM; read-out: HTRF Human PD-L1/PD-1 Binding Assay IC50
Compound `CCCC[C@H]1C(=O)N2CCC[C@@H]2C(=O)N[C@@H](CC(N)=O)C(=O)N[C@@H](C(C)C)C(=O)N(C)[C@@H](Cc2ccccc2)C(=O)N[C@@H](Cc2ccc(O)cc2)C(=O)N2CSC[C@@H]2C(=O)N[C@@H](Cc2c[nH]c3ccccc23)C(=O)N[C@@H](Cc2ccc(O)cc2)C(=O)N[C@@H](CC(C)C)C(=O)N[C@H](C(=O)NCC(N)=O)CSCC(=O)N[C@@H](Cc2ccccc2)C(=O)N(C)[C@@H](Cc2ccccc2)C(=O)N1C` [Example 10069] ({CH2CO}-F[NMeF][NMeNle][dP]NV[NMeF]Y[dThz]WYLCG-NH2; thioether N-13) has an IC50 of 0.0126 µM. Work on `CCCC[C@H]1C(=O)N(C)CC(=O)N[C@@H](CC(=O)O)C(=O)N[C@@H](C)C(=O)N(C)[C@@H](Cc2ccccc2)C(=O)N[C@@H](Cc2ccc(O)cc2)C(=O)N2C[C@@H](O)C[C@@H]2C(=O)N[C@@H](Cc2c[nH]c3ccccc23)C(=O)N[C@@H](Cc2ccc(O)cc2)C(=O)N[C@@H](CC(C)C)C(=O)N[C@H](C(=O)NCC(N)=O)CSCC(=O)N[C@@H](Cc2ccccc2)C(=O)N(C)[C@@H](Cc2ccccc2)C(=O)N1C` [Example 10083] ({CH2CO}-F[NMeF][NMeNle][Sar]DA[NMeF]Y[dHyp]WYLCG-NH2; thioether N-13) yielded an IC50 of 0.158 µM.

— patent US10538555B2, “Macrocyclic inhibitors of the PD-1/PD-L1 and CD80(B7-1)/PD-L1 protein/protein interactions” (BRISTOL-MYERS SQUIBB COMPANY, priority 2014, dated 2020)
